This note sets out measurements from ChEMBL document CHEMBL1909046, “DrugMatrix in vitro pharmacology data”.

The structures appear in SMILES notation.

One may read the IC50 as the concentration that inhibits the measured activity by half.

For test [1], the target named is T1, Polyunsaturated fatty acid lipoxygenase ALOX15 (Oryctolagus cuniculus, UniProt P12530).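 Note: inhibition of 15-lipoxygenase enzyme activity measured with linoleic acid as the substrate; in other assays of this panel Not Active means under 50% inhibition at 10 µM.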
T1 sequence (P12530 whole entry): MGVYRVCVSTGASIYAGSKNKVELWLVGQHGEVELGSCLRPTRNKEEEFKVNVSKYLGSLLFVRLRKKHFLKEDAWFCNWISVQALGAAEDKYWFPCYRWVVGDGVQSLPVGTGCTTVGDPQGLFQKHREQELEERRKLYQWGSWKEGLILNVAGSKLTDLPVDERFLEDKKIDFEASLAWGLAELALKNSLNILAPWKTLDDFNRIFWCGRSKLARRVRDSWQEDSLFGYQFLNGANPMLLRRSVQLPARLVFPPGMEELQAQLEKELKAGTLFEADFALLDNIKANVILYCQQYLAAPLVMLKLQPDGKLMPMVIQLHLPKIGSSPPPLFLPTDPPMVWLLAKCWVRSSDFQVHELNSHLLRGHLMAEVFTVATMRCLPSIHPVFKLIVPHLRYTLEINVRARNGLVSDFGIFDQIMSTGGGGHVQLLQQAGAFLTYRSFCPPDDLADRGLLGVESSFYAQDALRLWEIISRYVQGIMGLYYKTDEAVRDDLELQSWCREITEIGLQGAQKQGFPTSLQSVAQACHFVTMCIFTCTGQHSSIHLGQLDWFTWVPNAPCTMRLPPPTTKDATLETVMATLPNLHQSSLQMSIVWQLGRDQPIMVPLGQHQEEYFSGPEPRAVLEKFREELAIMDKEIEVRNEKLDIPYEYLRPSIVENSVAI
The test is described as follows: biochemical. It is filed as tissue-based, Reticulocytes. The settings on record: reticulocytes.

Test [2] concerns the target T2, Alpha-2A adrenergic receptor (Homo sapiens, UniProt P08913). Note: in other assays of this panel Not Active means under 50% inhibition at 10 µM.
T2 sequence (P08913 whole entry): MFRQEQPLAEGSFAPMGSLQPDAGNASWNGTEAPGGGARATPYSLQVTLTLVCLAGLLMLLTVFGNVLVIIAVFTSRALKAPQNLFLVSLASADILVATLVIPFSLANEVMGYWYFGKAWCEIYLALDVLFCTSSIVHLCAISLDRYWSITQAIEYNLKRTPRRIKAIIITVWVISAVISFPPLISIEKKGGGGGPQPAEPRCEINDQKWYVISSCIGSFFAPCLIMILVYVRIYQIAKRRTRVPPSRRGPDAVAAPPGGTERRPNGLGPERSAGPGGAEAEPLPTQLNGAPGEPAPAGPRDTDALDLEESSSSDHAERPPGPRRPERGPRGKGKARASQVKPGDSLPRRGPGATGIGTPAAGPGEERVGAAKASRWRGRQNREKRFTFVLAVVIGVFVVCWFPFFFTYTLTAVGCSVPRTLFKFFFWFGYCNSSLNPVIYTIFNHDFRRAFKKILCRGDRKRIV
It is filed as cell membranes, Sf9, Membrane. The settings on record: sf9.

Test [3] in a line: DRUGMATRIX: Atrial Natriuretic Factor (ANF) radioligand binding (ligand: [125I] ANF (rat)). It is filed as cell membranes, Cavia porcellus, Dunkin-Hartley, Adrenal gland, Membrane. The settings on record: Not Active = under 50% inhibition at 10 µM.
In test [4] the target is Beta-2 adrenergic receptor (Homo sapiens, UniProt P07550). The test is described as follows: DRUGMATRIX: Adrenergic beta2 radioligand binding (ligand: [3H] CGP-12177). It is filed as cell membranes, Membrane. The note with it: cho; Not Active = under 50% inhibition at 10 µM.
For test [5], the target named is T3, Cholecystokinin receptor type A (Homo sapiens, UniProt P32238). Note: in other assays of this panel Not Active means under 50% inhibition at 10 µM.
T3 sequence (P32238 whole entry): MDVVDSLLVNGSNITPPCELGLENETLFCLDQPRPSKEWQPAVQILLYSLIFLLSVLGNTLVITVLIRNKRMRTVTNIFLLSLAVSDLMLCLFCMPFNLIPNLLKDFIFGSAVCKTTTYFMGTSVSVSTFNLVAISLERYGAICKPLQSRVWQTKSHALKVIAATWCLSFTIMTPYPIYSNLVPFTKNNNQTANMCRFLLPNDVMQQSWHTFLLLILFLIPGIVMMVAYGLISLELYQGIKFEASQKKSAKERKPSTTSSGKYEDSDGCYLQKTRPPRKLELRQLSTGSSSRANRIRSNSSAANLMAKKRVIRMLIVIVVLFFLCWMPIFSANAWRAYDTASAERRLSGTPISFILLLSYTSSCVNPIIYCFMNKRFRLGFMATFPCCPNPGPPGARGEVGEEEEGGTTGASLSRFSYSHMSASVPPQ
It is filed as cell membranes, Membrane. The settings on record: 1321-n1.

The target of test [6] is Aldo-keto reductase family 1 member B1 (Rattus norvegicus, UniProt P07943). It is filed as tissue-based, Lens of camera-type eye.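 Note: inhibition of aldose reductase enzyme activity, measured with DL-glyceraldehyde as the substrate; in other assays of this panel Not Active means under 50% inhibition at 10 µM.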
Test [7] has as its target D(1A) dopamine receptor (Homo sapiens, UniProt P21728). The test is described as follows: DRUGMATRIX: Dopamine D1 radioligand binding (ligand: [3H] SCH-23390). It is filed as cell membranes, CHO, Membrane. The settings on record: cho; Not Active = under 50% inhibition at 10 µM.
The target in test [8] is C-C chemokine receptor type 5 (Homo sapiens, UniProt P51681). It is filed as cell membranes, Membrane. The note with it: hek293. Note: in other assays of this panel Not Active means under 50% inhibition at 10 µM.
Test [9] has as its target Vascular endothelial growth factor receptor 1 (Homo sapiens, UniProt P17948). It counts as cell-based. The note with it: huvec. Note: in other assays of this panel Not Active means under 50% inhibition at 10 µM.
Test [10] concerns the target Mitogen-activated protein kinase 14 (Homo sapiens, UniProt Q16539). More on the design: species or system Escherichia coli.
Test [11] addresses Substance-P receptor (Homo sapiens, UniProt P25103). It counts as cell membranes, CHO, Membrane. The settings on record: cho.
A short description of test [12]: DRUGMATRIX: Calcium Channel Type L, Dihydropyridine radioligand binding (ligand: [3H] Nitrendipine). It counts as cell membranes, Rattus norvegicus, Wistar, Cerebral cortex, Membrane. The note with it: Not Active = under 50% inhibition at 10 µM.
Test [13] can be described thus: DRUGMATRIX: Glutamate, AMPA radioligand binding (ligand: [3H] AMPA). It is filed as cell membranes, Rattus norvegicus, Wistar, Cerebral cortex, Membrane. The settings on record: Not Active = under 50% inhibition at 10 µM.
In test [14] the target is 5-hydroxytryptamine receptor 2B (Homo sapiens, UniProt P41595). It is filed as cell membranes, CHO-K1, Membrane. The note with it: cho-k1. Note: in other assays of this panel Not Active means under 50% inhibition at 10 µM.
A short description of test [15]: DRUGMATRIX: beta-Lactamase enzyme inhibition (substrate: Nitrocefin). The arrangement: species or system Bacillus cereus. The settings on record: Not Active = under 50% inhibition at 10 µM.
Test [16] addresses D(3) dopamine receptor (Homo sapiens, UniProt P35462). The test is described as follows: DRUGMATRIX: Dopamine D3 radioligand binding (ligand: [3H] Spiperone). It is filed as cell membranes, CHO, Membrane. The note with it: cho.
In test [17] the target is T4, Adenosine receptor A1 (Homo sapiens, UniProt P30542).
T4 sequence (P30542 whole entry): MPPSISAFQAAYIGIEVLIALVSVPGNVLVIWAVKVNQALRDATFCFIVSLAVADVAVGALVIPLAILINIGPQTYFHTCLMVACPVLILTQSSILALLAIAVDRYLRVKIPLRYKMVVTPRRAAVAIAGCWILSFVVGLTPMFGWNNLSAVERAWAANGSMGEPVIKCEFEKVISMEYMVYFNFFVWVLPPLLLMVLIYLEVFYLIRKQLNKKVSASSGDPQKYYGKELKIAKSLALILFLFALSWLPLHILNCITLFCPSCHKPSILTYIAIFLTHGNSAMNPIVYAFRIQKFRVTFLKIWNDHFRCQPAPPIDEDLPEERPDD
It counts as cell membranes, CHO, Membrane. The settings on record: cho.

Sequence of Mitogen-activated protein kinase 14 (Q16539 whole entry): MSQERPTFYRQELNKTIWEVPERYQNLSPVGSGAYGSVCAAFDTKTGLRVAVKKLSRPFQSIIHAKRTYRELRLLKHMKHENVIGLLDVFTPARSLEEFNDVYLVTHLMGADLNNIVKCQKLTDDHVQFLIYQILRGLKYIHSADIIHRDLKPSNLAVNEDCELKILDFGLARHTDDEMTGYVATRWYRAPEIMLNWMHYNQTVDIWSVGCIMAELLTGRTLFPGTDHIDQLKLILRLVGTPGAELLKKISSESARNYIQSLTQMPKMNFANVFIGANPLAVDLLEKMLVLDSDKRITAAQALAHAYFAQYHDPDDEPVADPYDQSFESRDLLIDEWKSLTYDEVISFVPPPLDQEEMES
Sequence of Beta-2 adrenergic receptor (P07550 whole entry): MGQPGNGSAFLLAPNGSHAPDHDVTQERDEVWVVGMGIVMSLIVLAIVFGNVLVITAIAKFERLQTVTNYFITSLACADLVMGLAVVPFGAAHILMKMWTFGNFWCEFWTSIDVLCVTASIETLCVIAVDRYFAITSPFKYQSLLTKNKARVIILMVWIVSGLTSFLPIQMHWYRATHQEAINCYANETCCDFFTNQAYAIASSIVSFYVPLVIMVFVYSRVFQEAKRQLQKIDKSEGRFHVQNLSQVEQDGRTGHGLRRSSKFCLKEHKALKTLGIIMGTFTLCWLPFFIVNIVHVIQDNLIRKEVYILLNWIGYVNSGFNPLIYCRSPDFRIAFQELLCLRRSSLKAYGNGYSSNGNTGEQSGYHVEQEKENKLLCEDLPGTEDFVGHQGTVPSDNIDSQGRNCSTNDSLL
Sequence of Substance-P receptor (P25103 whole entry): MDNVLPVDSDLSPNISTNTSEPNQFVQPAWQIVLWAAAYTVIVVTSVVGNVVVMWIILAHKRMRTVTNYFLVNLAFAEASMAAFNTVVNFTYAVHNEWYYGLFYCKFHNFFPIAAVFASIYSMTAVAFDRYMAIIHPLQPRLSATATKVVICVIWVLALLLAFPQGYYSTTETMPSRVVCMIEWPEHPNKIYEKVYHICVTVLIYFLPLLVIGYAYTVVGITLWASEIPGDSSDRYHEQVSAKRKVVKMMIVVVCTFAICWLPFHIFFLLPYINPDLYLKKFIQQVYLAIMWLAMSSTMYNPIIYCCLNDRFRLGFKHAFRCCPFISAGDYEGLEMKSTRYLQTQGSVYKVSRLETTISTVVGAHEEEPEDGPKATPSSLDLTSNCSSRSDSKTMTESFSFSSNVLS
Sequence of C-C chemokine receptor type 5 (P51681 whole entry): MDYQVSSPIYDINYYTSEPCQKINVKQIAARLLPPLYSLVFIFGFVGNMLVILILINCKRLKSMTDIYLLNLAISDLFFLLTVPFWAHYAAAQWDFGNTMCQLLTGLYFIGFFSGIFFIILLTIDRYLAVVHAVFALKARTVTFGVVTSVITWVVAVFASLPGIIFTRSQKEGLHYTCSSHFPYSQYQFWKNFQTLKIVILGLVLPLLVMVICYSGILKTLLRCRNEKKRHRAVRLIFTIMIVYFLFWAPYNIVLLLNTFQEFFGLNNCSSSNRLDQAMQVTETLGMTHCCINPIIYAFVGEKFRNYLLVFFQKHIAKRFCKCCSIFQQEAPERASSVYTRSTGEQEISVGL
Sequence of 5-hydroxytryptamine receptor 2B (P41595 whole entry): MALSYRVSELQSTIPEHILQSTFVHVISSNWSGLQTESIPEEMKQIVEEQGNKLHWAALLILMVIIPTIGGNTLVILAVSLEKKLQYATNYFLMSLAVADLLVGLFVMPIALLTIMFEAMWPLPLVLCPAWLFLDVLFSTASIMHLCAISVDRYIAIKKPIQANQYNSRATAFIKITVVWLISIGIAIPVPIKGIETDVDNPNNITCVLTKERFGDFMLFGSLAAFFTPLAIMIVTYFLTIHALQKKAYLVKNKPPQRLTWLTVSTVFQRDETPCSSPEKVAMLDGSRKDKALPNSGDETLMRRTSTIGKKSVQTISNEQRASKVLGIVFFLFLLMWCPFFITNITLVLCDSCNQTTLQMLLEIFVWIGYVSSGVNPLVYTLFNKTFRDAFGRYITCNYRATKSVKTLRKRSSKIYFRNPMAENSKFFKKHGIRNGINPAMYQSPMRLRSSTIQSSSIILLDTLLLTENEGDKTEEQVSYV
Sequence of D(1A) dopamine receptor (P21728 whole entry): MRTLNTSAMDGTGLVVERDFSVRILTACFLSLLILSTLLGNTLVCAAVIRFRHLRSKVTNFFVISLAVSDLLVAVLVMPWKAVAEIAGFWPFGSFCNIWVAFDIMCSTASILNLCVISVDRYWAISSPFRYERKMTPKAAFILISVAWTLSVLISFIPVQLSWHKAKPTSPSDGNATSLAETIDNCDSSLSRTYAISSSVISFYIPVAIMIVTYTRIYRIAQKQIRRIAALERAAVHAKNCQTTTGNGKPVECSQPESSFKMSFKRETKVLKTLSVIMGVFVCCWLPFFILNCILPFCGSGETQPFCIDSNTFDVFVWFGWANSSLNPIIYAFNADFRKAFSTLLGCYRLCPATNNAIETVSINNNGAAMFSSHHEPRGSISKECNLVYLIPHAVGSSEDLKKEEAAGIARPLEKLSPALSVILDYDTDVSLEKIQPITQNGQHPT
Sequence of D(3) dopamine receptor (P35462 whole entry): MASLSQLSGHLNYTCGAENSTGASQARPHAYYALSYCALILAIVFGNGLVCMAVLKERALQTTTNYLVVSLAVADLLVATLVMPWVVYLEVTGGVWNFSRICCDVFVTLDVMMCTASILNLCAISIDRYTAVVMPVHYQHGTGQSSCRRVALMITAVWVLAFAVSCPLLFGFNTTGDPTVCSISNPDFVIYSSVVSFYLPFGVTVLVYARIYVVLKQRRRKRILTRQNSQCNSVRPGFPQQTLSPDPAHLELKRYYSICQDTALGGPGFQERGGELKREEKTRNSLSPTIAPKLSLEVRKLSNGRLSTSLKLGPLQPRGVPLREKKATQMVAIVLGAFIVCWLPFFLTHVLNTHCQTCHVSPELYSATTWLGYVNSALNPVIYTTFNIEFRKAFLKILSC
Sequence of Vascular endothelial growth factor receptor 1 (P17948 whole entry): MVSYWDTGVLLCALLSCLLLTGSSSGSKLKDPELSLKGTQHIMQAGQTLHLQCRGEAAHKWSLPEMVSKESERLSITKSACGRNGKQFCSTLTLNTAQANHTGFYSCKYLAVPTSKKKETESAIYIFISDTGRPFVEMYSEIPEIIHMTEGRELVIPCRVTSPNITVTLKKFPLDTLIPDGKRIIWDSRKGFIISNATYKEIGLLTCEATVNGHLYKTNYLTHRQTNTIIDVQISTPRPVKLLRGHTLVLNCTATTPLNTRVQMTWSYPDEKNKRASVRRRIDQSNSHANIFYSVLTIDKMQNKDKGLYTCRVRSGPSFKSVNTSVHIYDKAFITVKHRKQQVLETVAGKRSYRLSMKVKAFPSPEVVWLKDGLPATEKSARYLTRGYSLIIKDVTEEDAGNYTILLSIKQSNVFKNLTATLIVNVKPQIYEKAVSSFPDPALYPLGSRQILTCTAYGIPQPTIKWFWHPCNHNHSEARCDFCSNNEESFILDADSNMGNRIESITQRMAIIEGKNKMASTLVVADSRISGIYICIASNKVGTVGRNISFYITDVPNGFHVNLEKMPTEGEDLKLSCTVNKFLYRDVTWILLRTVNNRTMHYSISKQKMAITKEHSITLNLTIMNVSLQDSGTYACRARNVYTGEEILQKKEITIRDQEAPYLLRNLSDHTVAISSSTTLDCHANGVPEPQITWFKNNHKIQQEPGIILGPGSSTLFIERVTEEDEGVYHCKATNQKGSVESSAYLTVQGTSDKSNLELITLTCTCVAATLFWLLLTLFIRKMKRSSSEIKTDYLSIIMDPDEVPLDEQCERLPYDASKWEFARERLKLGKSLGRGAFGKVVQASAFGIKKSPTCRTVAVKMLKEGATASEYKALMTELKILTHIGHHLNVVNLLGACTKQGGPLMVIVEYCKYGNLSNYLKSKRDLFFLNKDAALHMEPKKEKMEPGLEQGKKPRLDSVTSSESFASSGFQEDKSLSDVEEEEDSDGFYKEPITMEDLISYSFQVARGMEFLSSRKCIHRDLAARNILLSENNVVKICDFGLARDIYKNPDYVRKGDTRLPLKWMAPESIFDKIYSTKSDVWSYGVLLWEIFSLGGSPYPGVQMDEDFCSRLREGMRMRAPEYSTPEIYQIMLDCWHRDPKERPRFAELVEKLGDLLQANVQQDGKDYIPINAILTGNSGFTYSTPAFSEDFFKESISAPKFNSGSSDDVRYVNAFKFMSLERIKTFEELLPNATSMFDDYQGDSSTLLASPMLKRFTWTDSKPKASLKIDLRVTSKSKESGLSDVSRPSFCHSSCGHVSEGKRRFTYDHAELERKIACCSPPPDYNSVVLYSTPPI

For `CN[C@H](CC(C)C)C(=O)N[C@H]1C(=O)N[C@@H](CC(N)=O)C(=O)N[C@H]2C(=O)N[C@H]3C(=O)N[C@H](C(=O)N[C@H](C(=O)O)c4cc(O)cc(O)c4-c4cc3ccc4O)[C@H](O)c3ccc(c(Cl)c3)Oc3cc2cc(c3O[C@@H]2O[C@H](CO)[C@@H](O)[C@H](O)[C@H]2O[C@H]2C[C@](C)(N)[C@H](O)[C@H](C)O2)Oc2ccc(cc2Cl)[C@H]1O` [VANCOMYCIN], the IC50 result in [1], in test [2], in test [3], in test [4], in test [5] and in test [6] was “Not Active” each time. Also, the IC50 entry in test [7], in test [8], in [9], in test [10], in test [11] and in test [12] was “Not Active” throughout. For the same molecule, the IC50 entry in test [13], in [14], in test [15], in [16] and in test [17] was “Not Active” each time. In addition, the Ki result in test [3], in test [12], in [13] and in test [15] was “Not Active” in each case.
As for `CN(C)[C@@H]1C(O)=C(C(N)=O)C(=O)[C@@]2(O)C(O)=C3C(=O)c4c(O)cccc4[C@@](C)(O)[C@H]3C[C@@H]12` [TETRACYCLINE], the IC50 result in test [1], in test [2], in test [3], in test [4], in test [5] and in [6] was “Not Active” in each case. The half-maximal inhibitory concentration (IC50) result in test [7], in test [8], in test [9], in test [10], in [11] and in test [12] was “Not Active” throughout. Besides, the IC50 entry in test [13], in [14], in [15], in test [16] and in test [17] was “Not Active” throughout. For the same molecule, the Ki result in [3], in test [12], in [13] and in test [15] was “Not Active” each time.
Turning to `CO[C@@H]1[C@@H](O[C@@H]2O[C@H](C)[C@@H](O[C@H]3C[C@@](C)(O)[C@@H](OC(=O)CC(C)C)[C@H](C)O3)[C@H](N(C)C)[C@H]2O)[C@@H](CC=O)C[C@@H](C)[C@@H](O)/C=C/C=C/C[C@@H](C)OC(=O)C[C@H]1O` [KITASAMYCIN], the IC50 result in test [1], in [2], in test [3], in test [4], in [5] and in test [6] was “Not Active” throughout. Besides, the IC50 entry in [7], in [8], in [9], in test [10], in [11] and in [12] was “Not Active” in each case. Moreover, the IC50 result in [13], in [14], in test [15], in test [16] and in test [17] was “Not Active” each time. The Ki result in test [3], in [12], in test [13] and in [15] was “Not Active” in each case.
In the case of `Oc1c(I)cc(I)c2cccnc12` [IODOQUINOL], the IC50 entry in test [1], in [2], in test [3], in test [4], in [5] and in test [6] was “Not Active” each time. Further, the concentration for half-maximal inhibition (IC50) entry was “Not Active” in test [7]; “Not Active” in test [8]; “Not Active” in test [9]; 364 nM in test [10] (read-out: IC50); “Not Active” in [11]; “Not Active” in test [12]. The IC50 entry in test [13], in test [14], in [15], in [16] and in test [17] was “Not Active” each time. Besides, the Ki result in [3], in test [12], in [13] and in test [15] was “Not Active” each time.
As to `NC(CO)(CO)CO` [TROMETHAMINE], the IC50 result in test [1], in [2], in [3], in test [4], in test [5] and in test [6] was “Not Active” each time. Also, the IC50 result in [7], in test [8], in test [9], in test [10], in test [11] and in test [12] was “Not Active” in each case. Also, the IC50 entry in [13], in test [14], in test [15], in test [16] and in test [17] was “Not Active” each time. Also, the Ki entry in test [3], in test [12], in test [13] and in test [15] was “Not Active” throughout.
